SMILES strings stand for the structures. Some results are limits rather than exact numbers.

In one assay the target is T1, Human HDAC2 (Homo sapiens, UniProt Q92769).
T1 construct: full length with C-terminal GST-tag; GST (C); host or cells: baculovirus expression system
Kind of assay: HDAC2 biochemical assay, AMC-labeled peptide substrate. Particulars: read-out: HDAC Isoform IC50 (nM) 2. A digest of the protocol:
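Full-length human HDAC2 with C-terminal GST tag, baculovirus-expressed, at 0.07 ng/ul with 50 μM RHKK(Ac)AMC substrate in Tris-HCl pH8.0 buffer with BSA, 1% DMSO final. Incubated 1 hour at 30° C with compounds, then developer added; fluorescence read at 360/460 Ex/Em.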

Another assay has as its target T2, Human HDAC5 (Homo sapiens, UniProt Q9UQL6).
T2 construct: full length with C-terminal His tag, MW=51.1 kDa; His (C); host or cells: baculovirus expression system
Kind of assay: HDAC5 biochemical assay, class IIa-specific substrate. Particulars: read-out: HDAC Isoform IC50 (nM) 5. In outline:
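Two-step fluorogenic read-out: deacetylated trifluoroacetyl-lysine AMC substrate (50 μM) digested by developer, measured at Ex/Em 360/460. Deacetylation step: 0.05 ng/ul His-tagged full-length baculoviral enzyme with compound, 30 min, room temperature, pH 8.0 Tris with 1 mg/mL BSA and 1% DMSO.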

Another assay deals with T3, Human HDAC1 (Homo sapiens, UniProt Q13547).
T3 construct: full length with C-terminal His-tag and C-terminal FLAG-tag; His (C); FLAG (C); host or cells: baculovirus expression system
Nature of the assay: HDAC1 biochemical assay, AMC-labeled peptide substrate. Particulars: read-out: HDAC Isoform IC50 (nM) 1. In outline: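 Two-step fluorogenic read: HDAC1 deacetylates 50 μM acetyl-lysine AMC peptide RHKK(Ac)AMC for 1 h at 30° C (pH 8.0, 1% DMSO, with compound), then developer digests the product for fluorescence at Ex/Em 360/460. Enzyme is full-length human, His/FLAG-tagged, insect-cell expressed, at 0.3 ng/ul.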

For another assay, the target named is T4, Human HDAC7 (Homo sapiens, UniProt Q8WUI4).
T4 construct: (a.a. 518-end) with N-terminal GST tag; GST (N); host or cells: baculovirus expression system
T4 sequence (Q8WUI4 518-952 limits assumed): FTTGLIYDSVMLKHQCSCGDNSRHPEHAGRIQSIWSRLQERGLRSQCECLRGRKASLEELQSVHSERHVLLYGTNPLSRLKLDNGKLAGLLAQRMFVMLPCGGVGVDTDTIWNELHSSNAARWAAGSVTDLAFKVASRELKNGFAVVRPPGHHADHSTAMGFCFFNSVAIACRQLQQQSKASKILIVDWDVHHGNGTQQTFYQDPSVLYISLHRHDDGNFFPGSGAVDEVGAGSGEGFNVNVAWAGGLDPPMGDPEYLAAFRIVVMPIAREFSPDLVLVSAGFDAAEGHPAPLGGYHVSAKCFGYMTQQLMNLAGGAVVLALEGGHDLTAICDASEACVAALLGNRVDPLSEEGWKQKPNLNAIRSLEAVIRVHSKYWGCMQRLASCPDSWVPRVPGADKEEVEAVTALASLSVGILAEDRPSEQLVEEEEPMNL
Kind of assay: HDAC7 biochemical assay, class IIa-specific substrate. Particulars: read-out: HDAC Isoform IC50 (nM) 7. In outline: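 Two-step fluorogenic readout: class IIa-selective trifluoroacetyl-lysine AMC substrate (50 μM) deacetylated by N-terminal GST-HDAC7 fragment (0.001 ng/ul), then digested by developer, Ex/Em 360/460. Reaction: 30 min, room temperature, Tris-HCl pH 8.0, NaCl/KCl/MgCl2, 1 mg/mL BSA, 1% DMSO.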

A further assay deals with T5, Human HDAC8 (Homo sapiens, UniProt Q9BY41).
T5 construct: full length with C-terminal His tag, MW=42.6 kDa; His (C); host or cells: baculovirus expression system
T5 sequence (Q9BY41 1-377): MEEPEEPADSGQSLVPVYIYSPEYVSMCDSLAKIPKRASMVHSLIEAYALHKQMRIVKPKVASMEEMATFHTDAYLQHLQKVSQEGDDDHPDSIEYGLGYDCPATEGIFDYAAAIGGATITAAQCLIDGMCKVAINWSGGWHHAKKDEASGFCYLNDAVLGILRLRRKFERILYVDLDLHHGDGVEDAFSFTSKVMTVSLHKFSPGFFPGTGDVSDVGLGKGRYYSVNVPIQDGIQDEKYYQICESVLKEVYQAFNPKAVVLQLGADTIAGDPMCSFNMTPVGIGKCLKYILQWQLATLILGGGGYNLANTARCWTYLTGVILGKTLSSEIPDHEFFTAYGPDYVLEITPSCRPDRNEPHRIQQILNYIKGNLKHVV
Nature of the assay: HDAC8 biochemical assay, AMC-labeled peptide substrate. Particulars: read-out: HDAC Isoform IC50 (nM) 8. A digest of the protocol:
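Two-step fluorogenic readout: compounds and enzyme deacetylate 100 µM RHK(Ac)K(Ac)AMC for 2 h at 30° C (pH8.0 Tris buffer, BSA, 1% DMSO final), then developer releases AMC, read at 360/460 Ex/Em. Enzyme: 1 ng/ul full-length His-tagged human HDAC8 from baculovirus.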

T2 sequence (Q9UQL6 656-1122 limits assumed): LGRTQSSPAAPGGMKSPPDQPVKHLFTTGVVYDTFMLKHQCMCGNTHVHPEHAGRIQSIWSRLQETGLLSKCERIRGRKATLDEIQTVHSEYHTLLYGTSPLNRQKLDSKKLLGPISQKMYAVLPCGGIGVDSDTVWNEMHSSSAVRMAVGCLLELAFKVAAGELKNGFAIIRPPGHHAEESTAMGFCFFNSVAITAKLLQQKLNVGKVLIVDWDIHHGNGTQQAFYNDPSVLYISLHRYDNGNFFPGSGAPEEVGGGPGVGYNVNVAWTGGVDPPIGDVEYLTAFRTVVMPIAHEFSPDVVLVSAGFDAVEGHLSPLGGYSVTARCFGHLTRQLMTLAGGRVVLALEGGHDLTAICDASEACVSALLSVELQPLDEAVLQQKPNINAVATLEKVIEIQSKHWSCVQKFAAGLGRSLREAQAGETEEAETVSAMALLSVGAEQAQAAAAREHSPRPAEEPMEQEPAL
T1 sequence (Q92769 whole entry): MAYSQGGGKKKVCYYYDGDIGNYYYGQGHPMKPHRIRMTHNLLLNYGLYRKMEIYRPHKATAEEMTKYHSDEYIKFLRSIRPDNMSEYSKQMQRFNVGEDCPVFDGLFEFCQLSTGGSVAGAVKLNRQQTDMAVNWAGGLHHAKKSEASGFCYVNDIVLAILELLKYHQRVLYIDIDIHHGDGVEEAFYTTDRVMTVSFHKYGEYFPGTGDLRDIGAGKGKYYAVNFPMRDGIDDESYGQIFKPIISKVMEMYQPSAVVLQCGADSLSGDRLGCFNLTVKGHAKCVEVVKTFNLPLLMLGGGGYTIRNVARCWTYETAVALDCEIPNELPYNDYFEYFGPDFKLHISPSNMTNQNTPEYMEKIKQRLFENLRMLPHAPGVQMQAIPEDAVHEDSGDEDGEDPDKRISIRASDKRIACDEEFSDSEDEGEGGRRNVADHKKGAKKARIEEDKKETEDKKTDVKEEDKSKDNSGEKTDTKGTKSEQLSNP
T3 sequence (Q13547 whole entry): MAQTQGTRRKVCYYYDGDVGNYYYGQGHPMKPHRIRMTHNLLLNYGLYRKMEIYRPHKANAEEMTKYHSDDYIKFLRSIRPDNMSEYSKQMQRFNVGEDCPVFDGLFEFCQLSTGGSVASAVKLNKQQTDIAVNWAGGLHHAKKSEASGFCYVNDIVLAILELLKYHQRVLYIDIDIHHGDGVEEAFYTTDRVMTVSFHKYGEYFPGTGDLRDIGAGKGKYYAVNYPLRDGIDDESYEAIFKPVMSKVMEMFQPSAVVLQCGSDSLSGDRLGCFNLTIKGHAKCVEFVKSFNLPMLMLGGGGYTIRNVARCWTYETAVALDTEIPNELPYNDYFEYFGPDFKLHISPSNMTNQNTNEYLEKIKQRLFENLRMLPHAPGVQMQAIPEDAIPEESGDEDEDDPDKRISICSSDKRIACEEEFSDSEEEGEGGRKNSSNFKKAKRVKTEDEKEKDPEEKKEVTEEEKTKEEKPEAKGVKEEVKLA

Consider `O=C(c1cncc(N(Cc2ccc(-c3noc(C(F)(F)F)n3)s2)c2cnccn2)c1)N1CCOCC1` [Example GR, N-[5-(Morpholine-4-carbonyl)pyridin-3-yl]-N-({5-[5-(trifluoromethyl)-1,2,4-oxadiazol-3-yl]thiophen-2-yl}methyl)pyrazin-2-amine], for which the IC50 (in general, the concentration at which inhibition is half-maximal) on Human HDAC2 is over 10000 nM; on Human HDAC5, at most 500 nM; on Human HDAC1, over 10000 nM; on Human HDAC7 it was at most 500 nM; on Human HDAC8, at most 10000 nM.

Regarding `CC(C)(O)c1cnnc(N(Cc2ccc(-c3noc(C(F)(F)F)n3)s2)c2cnccn2)c1` [Example GS, 2-{6-[(Pyrazin-2-yl)({5-[5-(trifluoromethyl)-1,2,4-oxadiazol-3-yl]thiophen-2-yl}methyl)amino]pyridazin-4-yl}propan-2-ol], the IC50 at Human HDAC2 is over 10000 nM; at Human HDAC5, at most 1000 nM; at Human HDAC1, at most 10000 nM; at Human HDAC7, at most 1000 nM; at Human HDAC8, at most 10000 nM.

On to `CC1(c2cnnc(N(Cc3ccc(-c4noc(C(F)(F)F)n4)s3)c3cnccn3)c2)COC1` [Example GT, 5-(3-Methyloxetan-3-yl)-N-(pyrazin-2-yl)-N-({5-[5-(trifluoromethyl)-1,2,4-oxadiazol-3-yl]thiophen-2-yl}methyl)pyridazin-3-amine], for which the IC50 was over 10000 nM at Human HDAC2; at most 1000 nM on Human HDAC5; over 10000 nM at Human HDAC1; at most 10000 nM at Human HDAC7; at most 10000 nM at Human HDAC8.

`CC(F)(F)c1cnnc(N(Cc2ccc(-c3noc(C(F)(F)F)n3)s2)c2cnccn2)c1` [Example GU, 5-(1,1-Difluoroethyl)-N-(pyrazin-2-yl)-N-({5-[5-(trifluoromethyl)-1,2,4-oxadiazol-3-yl]thiophen-2-yl}methyl)pyridazin-3-amine]: the IC50 at Human HDAC2 was over 10000 nM; on Human HDAC5, at most 10000 nM; at Human HDAC1 it was over 10000 nM; on Human HDAC7, at most 10000 nM; on Human HDAC8 it was at most 10000 nM.

With `FC(F)c1cnnc(N(Cc2ccc(-c3noc(C(F)(F)F)n3)s2)c2cnccn2)c1` [Example GV, 5-(Difluoromethyl)-N-(pyrazin-2-yl)-N-({5-[5-(trifluoromethyl)-1,2,4-oxadiazol-3-yl]thiophen-2-yl}methyl)pyridazin-3-amine], the IC50 on Human HDAC2 was over 10000 nM; at Human HDAC5, at most 1000 nM; at Human HDAC1, over 10000 nM; on Human HDAC7, at most 1000 nM; on Human HDAC8, at most 10000 nM.

As for `OC1(c2cnnc(N(Cc3ccc(-c4noc(C(F)(F)F)n4)s3)c3cnccn3)c2)COC1` [Example GW, 3-{6-[(Pyrazin-2-yl)({5-[5-(trifluoromethyl)-1,2,4-oxadiazol-3-yl]thiophen-2-yl}methyl)amino]pyridazin-4-yl}oxetan-3-ol], the IC50 at Human HDAC2 was over 10000 nM; at Human HDAC5, at most 10000 nM; on Human HDAC1, over 10000 nM; at Human HDAC7, at most 1000 nM; at Human HDAC8, at most 10000 nM.

Take `C[C@H]1CCCN1C(=O)c1cnnc(N(Cc2ccc(-c3noc(C(F)(F)F)n3)s2)c2cnccn2)c1` [Example GY, 5-[(2S)-2-Methylpyrrolidine-1-carbonyl]-N-(pyrazin-2-yl)-N-({5-[5-(trifluoromethyl)-1,2,4-oxadiazol-3-yl]thiophen-2-yl}methyl)pyridazin-3-amine]: the IC50 on Human HDAC2 is over 10000 nM; at Human HDAC5 it was at most 1000 nM; at Human HDAC1, over 10000 nM; at Human HDAC7 it was at most 10000 nM; at Human HDAC8, at most 10000 nM.

For `FC(F)(F)c1nc(-c2ccc(CN(c3ccccn3)c3ccccn3)s2)no1` [Example U, N-(Pyridin-2-yl)-N-({5-[5-(trifluoromethyl)-1,2,4-oxadiazol-3-yl]thiophen-2-yl}methyl)pyridin-2-amine], the IC50 is over 10000 nM at Human HDAC2; at most 10000 nM on Human HDAC5; over 10000 nM at Human HDAC1; at most 10000 nM at Human HDAC7; over 10000 nM on Human HDAC8.

(Values after US20210038607A1, “OXADIAZOLYLTHIOPHENE DERIVATIVES USEFUL AS HISTONE DEACETYLASE INHIBITORS” (Karus Therapeutics Limited, priority 2018, published 2021).)
